Where a name gives a salt, the structure may show the parent alone.
Test system: phosphorylated ERK (pERK)
Experiment: Detection of phosphorylated ERK (pERK), AlphaLISA in A375 cells
Assay type: cell-based
Conditions: Homo sapiens, A-375, 4 h, four hours incubation, inhibition of ERK phosphorylation, read-out: PERK ELISA (IC50)
Method: A375 cells were counted and seeded at 10,000 cells/well in 384 well plates (Corning 3764) and allowed to adhere overnight.
Compounds were dissolved and serially diluted in DMSO. The compounds were then added, mixed, and incubated for four hours at 37° C., 5% CO2. Compounds were added using four-fold dilutions at final concentrations ranging from 10 μM to 0.01 nM. DMSO only and 10 uM staurosporine were added as high and low controls.
Following the four-hour incubation with compounds, cell lysates were prepared and AlphaLISA assay measuring phosphorylated ERK was performed. Media was removed using the Apricot Designs pipettor. Lysis buffer was made from 1× AlphaLISA SureFire Assay Kit (AlphaLISA SureFire Ultra pERK 12 (Thr202/Tyr204) ALSU-PERK-A50K) lysis buffer with protease and phosphatase inhibitors. Cells were lysed by adding 10 uL to all the wells and mixed for 40 minutes on a plate shaker. 10 uL cell lysate was transferred to a new Optiplate (PerkinElmer 6007290) and incubated with 5 uL 1× acceptor mix for 2 hours in the dark. 5 uL of 1× donor mix was added to all wells and mixed by shaking followed by overnight incubation in the dark.
pERK AlphaLISA signal was read on the Envision using standard AlphaLISA settings. Percent inhibition of ERK phosphorylation was calculated by % Inhibition=100×(LumHC−LumSample)/(LumHC−LumLC). The low and high controls (LC/HC) are generated from lysate from wells with cells treated with DMSO or […] Staurosporine (BioAustralis, cat #BIA-S1086), […]. IC50 values were calculated by fitting the Curve using XLfit (v5.3.1.3), equation 201: Y=Bottom+(Top−Bottom)/(1+10^((Log IC50−X)*HillSlope)).

How did the IC50 turn out when `Cc1cc([C@H](O)C(C)(F)F)ncc1-c1cc2cnc(NC(=O)C3CC3)cc2n(C)c1=O` (single isomer, unassigned) [Compound 116, formate] was run?
Its IC50 is 78.1 nM.

Which IC50 does the source give for `Cc1cc([C@@H](O)C(C)(F)F)ncc1-c1cc2cnc(NC(=O)C3CC3)cc2n(C)c1=O` (single isomer, unassigned) [Compound 117] here?
The IC50 was 61.3 nM.

With `CC[C@@H](O)c1cc(C)c(-c2cc3cnc(NC(=O)[C@@H]4CC4(F)F)cc3n(C)c2=O)cn1` (single isomer, unassigned) [Compound 123] as the molecule, how does the IC50 read?
The IC50 was 119 nM.

`CC[C@H](O)c1cc(C)c(-c2cc3cnc(NC(=O)[C@@H]4CC4(F)F)cc3n(C)c2=O)cn1` (single isomer, unassigned) [Compound 124] was tested. Which IC50 did it give?
Its IC50 is 63.5 nM.

With `Cc1cc(-n2cccn2)ncc1-c1cc2cnc(NC(=O)C3CC3)cc2n(C)c1=O` [Compound 122, N-{1-methyl-3-[4-methyl-6-(pyrazol-1-yl)pyridin-3-yl]-2-oxo-1,6-naphthyridin-7-yl}cyclopropanecarboxamide] as the molecule, how does the IC50 read?
Its IC50 is 478 nM.

Same assay, conditions: four hours incubation, inhibition of ERK phosphorylation, read-out: PERK ELISA (IC50)

For `CCC(O)c1cc(C)c(-c2cc3cnc(NC(C)=O)cc3n(C)c2=O)cn1` (single isomer, unassigned) [Example S59, Enantiomer B, N-(3-(6-(1-hydroxypropyl)-4-methylpyridin-3-yl)-1-methyl-2-oxo-1,2-dihydro-1,6-naphthyridin-7-yl)acetamide], which IC50 is on record?
Its IC50 is 373 nM.

How did the IC50 turn out when `CCCC(O)c1cc(C)c(-c2cc3cnc(NC(C)=O)cc3n(C)c2=O)cn1` (single isomer, unassigned) [Example S67, Enantiomer B, N-(3-{6-[1-hydroxybutyl]-4-methylpyridin-3-yl}-1-methyl-2-oxo-1,6-naphthyridin-7-yl)acetamide] was run?
Its IC50 is 23.9 nM.

How did the IC50 turn out when `CCC(O)c1cc(C)c(-c2cc3cnc(NC(=O)C4CC4)cc3n(C)c2=O)c(C)c1` (stereo in doubt) [Compound 118, (R)—N-(3-(4-(1-hydroxypropyl)-2,6-dimethylphenyl)-1-methyl-2-oxo-1,2-dihydro-1,6-naphthyridin-7-yl)cyclopropanecarboxamide] was run?
The IC50 was 1250 nM.

`CCC(O)c1cc(C)c(-c2cc3cnc(NC(=O)C4CC4)cc3n(C)c2=O)c(C)c1` (stereo in doubt) [Compound 119, (R)—N-(3-(4-(1-hydroxypropyl)-2,6-dimethylphenyl)-1-methyl-2-oxo-1,2-dihydro-1,6-naphthyridin-7-yl)cyclopropanecarboxamide] was tested. Which IC50 did it give?
The IC50 was 313 nM.

`CCC(O)c1cc(C)c(-c2cc3cnc(NC(=O)C4CC4)cc3n(C)c2=O)c(C)c1` (stereo in doubt) [Compound 120, (S)—N-(3-(4-(1-hydroxypropyl)-2,6-dimethylphenyl)-1-methyl-2-oxo-1,2-dihydro-1,6-naphthyridin-7-yl)cyclopropanecarboxamide] was tested. Which IC50 did it give?
Its IC50 is greater than 10000 nM.

For `CCC(O)c1cc(C)c(-c2cc3cnc(NC(=O)C4CC4)cc3n(C)c2=O)c(C)c1` (stereo in doubt) [Compound 121, (S)—N-(3-(4-(1-hydroxypropyl)-2,6-dimethylphenyl)-1-methyl-2-oxo-1,2-dihydro-1,6-naphthyridin-7-yl)cyclopropanecarboxamide], which IC50 is on record?
Its IC50 is 151 nM.
